Values quoted from earlier work in US9034354B2, “Bacteriostatic and anti-collagenolytic dental materials through the incorporation of polyacrylic acid modified CuI nanoparticles” (MUSC Foundation for Research Development, priority 2012, dated 2015).

Test system: Streptococcus mutans
Conditions: discs of composite resin containing MDPB versus discs without MDPB, in the presence of Streptococcus mutans

Structure (SMILES): C=C(C)C(=O)OCCCCCCCCCCCC[n+]1ccccc1.[Br-] [MDPB, 12-methacryloyloxydodecylpyridinium bromide]
- numbers of bacteria recovered from the discs reduced by: 97%
